According to patent US20220389422A1, “IONIZABLE CATIONIC LIPIDS FOR RNA DELIVERY” (Arcturus Therapeutics, Inc., priority 2021, published 2022):

Key:
factor VII = test: Factor VII knock down evaluation (LNP with FVII siRNA); type: in vivo, Balb/C mice; conditions: intravenous, plasma FVII after 48 h, relative to saline-treated controls; for FVII KD % _ 0.01 mpk: 0.01 mg/kg; for FVII KD % _ 0.03 mpk: 0.03 mg/kg
Procedure: Lipid formulations comprising a FVII siRNA further described below were evaluated for their knockdown activity using the protocol of this example. In the FVII evaluation, seven to eight week-old, female Balb/C mice were purchased from Charles River Laboratories (Hollister, Calif.). The mice were held in a pathogen-free environment and all procedures involving the mice were performed in accordance with guidelines established by the Institutional Animal Care and Use Committee (IACUC). Lipid nanoparticles containing factor VII siRNA were administered intravenously at a dosing volume of 10 mL/kg and two dose levels (0.03 and 0.01 mg/kg). After 48 h, the mice were anesthetized with isoflurane and blood was collected retro-orbitally into Microtainer® tubes coated with 0.109 M sodium citrate buffer (BD Biosciences, San Diego, Calif.) and processed to plasma. Plasma specimens were tested for factor VII levels immediately or stored at −80° C. for later analysis. Measurement of FVII protein in plasma was determined using the colorimetric Biophen VII assay kit (Aniara Diagnostica, USA). Absorbance was measured at 405 nm and a calibration curve was generated using the serially diluted control plasma to determine levels of factor VII in plasma from treated animals, relative to the saline-treated control animals.

hEPO mRNA = hEPO mRNA expression evaluation (hEPO-LNPs); type: in vivo, Balb/c mice; conditions: intravenous (tail vein), serum hEPO after 6 hr, ELISA; for EPO expression (ng/mL)_0.03 mpk: 0.03 mg/kg; for EPO expression (ng/mL)_0.1 mpk: 0.1 mg/kg
Procedure: Protocol for hEPO mRNA Expression Evaluation Lipid formulations comprising a hEPO mRNA below were evaluated for their ability to express hEPO in vivo according to the protocol of this example. All animal experiments were conducted using institutionally-approved protocols (IACUC). In this protocol, female Balb/c mice at least 6-8 weeks of age were purchased from Charles River Laboratory. The mice were intravenously injected with hEPO-LNPs via the tail vein with one of two dose levels of hEPO (0.1 and 0.03 mg/kg). After 6 hr, blood was collected with serum separation tubes, and the serum was isolated by centrifugation. Serum hEPO levels were then measured using an ELISA assay (Human Erythropoietin Quantikine IVD ELISA Kit, R&D Systems, Minneapolis, Md.).

Measured pKa = type: physicochemical; conditions: read-out: (pKa) measured pKa in parenthesis
Mouse plasma stability = type: in vitro ADME, CD-1 mouse; conditions: 37° C., starting concentration 1 μM, 120 min, LC-MS
Procedure: Lipid stock solution was prepared by dissolution of the lipid in isopropanol at the concentration of 5 mg/mL. A requisite volume of the lipid-isopropanol solution was then diluted to 100 μM concentration at a total volume of 1.0 mL with in 50:50 (v/v) ethanol/water. Ten microliters of this 100 μM solution was spiked into 1.0 mL of mouse plasma (BioIVT, Cat. No.: MSE00PLNHUNN, CD-1 mouse, anticoagulant: sodium heparin, not filtered) that was pre-warmed to 37° C. and was stirred at 50 rpm with a magnetic stir bar. The starting concentration of lipids in plasma was thus 1 μM. At time points 0, 15, 30, 45, 60 and 120 min, 0.1 mL of the plasma was withdrawn from the reaction mixture and the protein was precipitated by adding 0.9 mL of ice-cold 4:1 (v/v) acetonitrile/methanol with 1 μg/mL of a selected internal standard lipid added. After filtration through a 0.45 micron 96-well filtering plate, the filtrates were analyzed by LC-MS (Thermo Fisher's Vanquish UHPLC-LTQ XL linear ion trap Mass Spectrometer); Waters XBridge BEH Shield RP18 2.5 µm (2.1×100 mm) column with its matching guard column. Mobile phase A was 0.1% formic acid in water, and mobile phase B was 0.1% formic acid in 1:1 (v/v) acetonitrile/methanol. Flow rate was […]. Elution gradient was: Time 0-1 min: 10% B; 1-6 min: 10%-95% B; 6-8.5 min: 95% B; 8.5-9 min: 95%-10% B; 9-10 min: 10% B. Mass spectrometry was in positive scanning mode from 600-1100 m/z. The peak of the molecular ion of the lipids was integrated in the extracted ion chromatography
(XIC) using Xcalibur software (Thermo Fisher). The relative peak area compared to T=0, after normalization by the peak area of the internal standard, was used as the percentage of the lipid remaining at each time point. T1/2 values were calculated using the first-order decay model.

[1] = In vivo biodegradability assay (lipid in mouse liver); parameters: species or system mice; conditions: for concentration at 48 h: 0.03 mg/Kg dose, read-out: In vivo degradability ng/g of tissue at 48 h_0.03 mpk; for In vivo degradability ng/tissue at 48 h_0.1 mpk: 48 h, 0.1 mg/Kg dose
Procedure: In vivo biodegradability assay was performed to assess the biodegradability of lipids in the LNP. Briefly, mice were injected with either 0.1 or 0.03 mg/Kg dose and after 24 or 48 hours mice livers were collected. To measure the concentration of lipids in the mouse liver, liver samples were homogenized in appropriate buffer in 1-10 dilution and mixed with the same amount of stabilized plasma. The samples were then mixed with organic solvents spiked with internal standard to precipitate proteins. After centrifugation, supernatant was diluted further with organic solvent before sample analysis by LC-MS. In LC-MS analysis, positive electrospray ionization was used, and multiple reaction monitoring (MRM) parameters were set up to specifically target the lipid analyte and internal standard. Calibration standards were prepared in stabilized plasma and mixed with same amount of homogenization buffer before protein precipitation. Quality control samples with known amounts of lipid was prepared in blank liver homogenate to monitor the precision and accuracy of the assay.

## CCCCCCCC(CCCCCCC)OC(=O)CCCC(CCCC(=O)OC(CCCCCCC)CCCCCCC)OC(=O)CCCN(C)C [ATX-193, 1,9-bis(pentadecan-8-yl)5-[[4-(dimethylamino)butanoyl]oxy] nonanedioate]
Factor VII
  FVII KD % _ 0.01 mpk: 95.6%
  FVII KD % _ 0.03 mpk: 100%
hEPO mRNA
  EPO expression (ng/mL)_0.03 mpk: 264 ng/mL
  EPO expression (ng/mL)_0.1 mpk: 498 ng/mL
Measured pKa
  pKa: 6.35

## CCCCCCCC(CCCCCCC)OC(=O)CCCC(CCCC(=O)OC(CCCCCCC)CCCCCCC)COC(=O)CCCN(C)C [ATX-200, 1,9-bis(pentadecan-8-yl) 5-([[4-(dimethylamino)butanoyl]oxy]methyl) nonanedioate]
Factor VII
  FVII KD % _ 0.01 mpk: 87.1%
  FVII KD % _ 0.03 mpk: 97.5%
hEPO mRNA
  EPO expression (ng/mL)_0.03 mpk: 494 ng/mL
  EPO expression (ng/mL)_0.1 mpk: 828 ng/mL
Measured pKa
  pKa: 6.78

## CCCCCCCC(CCCCCCC)OC(=O)CCC(CCC(=O)OC(CCCCCCC)CCCCCCC)COC(=O)CCCN(C)C [ATX-201]
Factor VII
  FVII KD % _ 0.01 mpk: 87.4%
  FVII KD % _ 0.03 mpk: 97.5%
hEPO mRNA
  EPO expression (ng/mL)_0.03 mpk: 523 ng/mL
  EPO expression (ng/mL)_0.1 mpk: 680 ng/mL
Measured pKa
  pKa: 6.74

## CCCCCCCC(CCCCCCC)OC(=O)CCCC(CCCC(=O)OC(CCCCCCC)CCCCCCC)SC(=O)CCCN(C)C [ATX-202]
Factor VII
  FVII KD % _ 0.01 mpk: 61.42%
  FVII KD % _ 0.03 mpk: 83.22%
hEPO mRNA
  EPO expression (ng/mL)_0.03 mpk: 447 ng/mL
  EPO expression (ng/mL)_0.1 mpk: 531 ng/mL
Measured pKa
  pKa: 6.17

## CCCCCCC(CCCCCC)OC(=O)CCCCCC(CCCCCC(=O)OC(CCCCCC)CCCCCC)OC(=O)CCCN(C)C [ATX-209]
Factor VII
  FVII KD % _ 0.01 mpk: 65.7%
  FVII KD % _ 0.03 mpk: 90.6%
hEPO mRNA
  EPO expression (ng/mL)_0.03 mpk: 65 ng/mL
  EPO expression (ng/mL)_0.1 mpk: 290 ng/mL
Mouse plasma stability
  Percent of lipid remaining in mouse plasma after 2 h: 80%
[1]
  concentration at 48 h: 0 ng/g
  In vivo degradability ng/tissue at 48 h_0.1 mpk: 647 ng/tissue

## CCCCCCCC(CCCCCCC)OC(=O)CCCC(CCCC(=O)OC(CCCCC)CCCCC)OC(=O)CCCN(C)C (centres unmarked) [ATX-210]
Factor VII
  FVII KD % _ 0.01 mpk: 87%
  FVII KD % _ 0.03 mpk: 97.65%
hEPO mRNA
  EPO expression (ng/mL)_0.03 mpk: 329 ng/mL
  EPO expression (ng/mL)_0.1 mpk: 662 ng/mL
Measured pKa
  pKa: 6.53

## CCCCCCC(CCCCCC)COC(=O)CCCCCC(CCCCCC(=O)OCC(CCCCCC)CCCCCC)OC(=O)CCCN(C)C [ATX-231]
Factor VII
  FVII KD % _ 0.01 mpk: 72%
  FVII KD % _ 0.03 mpk: 86%
hEPO mRNA
  EPO expression (ng/mL)_0.03 mpk: 1706 ng/mL
  EPO expression (ng/mL)_0.1 mpk: 5446 ng/mL
Mouse plasma stability
  Percent of lipid remaining in mouse plasma after 2 h: 89%
[1]
  concentration at 48 h: 0 ng/g
  In vivo degradability ng/tissue at 48 h_0.1 mpk: 0 ng/tissue

## CCCCCCCC(CCCCCCC)COC(=O)CCCC(CCCC(=O)OC(CCCCCCC)CCCCCCC)OC(=O)CCCN(C)C (centres unmarked) [ATX-232]
Factor VII
  FVII KD % _ 0.01 mpk: 74%
  FVII KD % _ 0.03 mpk: 90%
hEPO mRNA
  EPO expression (ng/mL)_0.03 mpk: 2115 ng/mL
  EPO expression (ng/mL)_0.1 mpk: 510 ng/mL

## CCCCCC(CC)C(=O)OCCCCCCCCCC(CCCCCCCCCOC(=O)C(CC)CCCCC)OC(=O)CCCN(C)C (centres unmarked) [Compound-10111, reference compound]
Factor VII
  FVII KD % _ 0.01 mpk: 89%
  FVII KD % _ 0.03 mpk: 95%
hEPO mRNA
  EPO expression (ng/mL)_0.03 mpk: 105 ng/mL
  EPO expression (ng/mL)_0.1 mpk: 213 ng/mL
Mouse plasma stability
  Percent of lipid remaining in mouse plasma after 2 h: 91%
[1]
  concentration at 48 h: 566 ng/g
  In vivo degradability ng/tissue at 48 h_0.1 mpk: 2613 ng/tissue
